According to patent publication US20230398101A1, “Co-agents as Therapy Against Anaerobic Pathogens” (priority 2022, published 2023):
Where two headings read alike, the source gives them in different places.

Tests used:
[1] = system: Pseudomonas aeruginosa; assay: Aerobic agar-dilution AST of facultative anaerobes (MIC, checkerboard FIC); format: cell-based
[2] = system: Clostridium septicum; assay: Anaerobic agar-dilution AST (MIC, checkerboard FIC); format: cell-based; conditions: for MIC vs clinical breakpoint (susceptibility): anaerobic (Table 17); for MIC: Clostridium septicum
[3] = system: Burkholderia thailandensis; assay: microbe, parasite or virus in culture; format: cell-based; conditions: ATCC700388, pH 7
[4] = system: Bacteroides thetaiotaomicron; assay: microbe, parasite or virus in culture; format: cell-based; conditions: for MIC: anaerobic
[5] = system: Pediococcus acidilactici; assay: AST (MIC) of beneficial or mutualistic facultative anaerobic bacteria; format: cell-based
[6] = system: Bacteroides ovatus; assay: Anaerobic agar-dilution AST (MIC, checkerboard FIC); format: cell-based
[7] = system: Aggretibacter actinomycetemcomitans; assay: as above; format: cell-based; conditions: strain D751, anaerobic
[8] = system: Escherichia coli; assay: Post-antibiotic effect (PAE) in vitro, viable counts; conditions: Escherichia coli ATCC 25922
[9] = system: Acinetobacter baumannii; assay: Aerobic agar-dilution AST of facultative anaerobes (MIC, checkerboard FIC); format: cell-based
[10] = system: Parabacteroides distasonis; assay: Anaerobic agar-dilution AST (MIC, checkerboard FIC); format: cell-based
[11] = system: Streptococcus mutans; assay: as above; format: cell-based; conditions: strain UA 159, anaerobic
[12] = system: Lactobacillus delbrueckii; assay: AST (MIC) of beneficial or mutualistic facultative anaerobic bacteria; format: cell-based
[13] = system: Escherichia coli; assay: Aerobic agar-dilution AST of facultative anaerobes (MIC, checkerboard FIC); format: cell-based
[14] = system: Staphylococcus aureus; assay: Post-antibiotic effect (PAE) in vitro, viable counts; conditions: Staphylococcus aureus ATCC 33591 (beta-lactam resistant)
[15] = system: Lactobacillus acidophilus; assay: AST (MIC) of beneficial or mutualistic facultative anaerobic bacteria; format: cell-based
[16] = system: Klebsiella pneumoniae; assay: Aerobic agar-dilution AST of facultative anaerobes (MIC, checkerboard FIC); format: cell-based

C[C@@H]1O[C@@H]1P(=O)(O)O [F, fosfomycin sodium]
MIC ([1]; Pseudomonas aeruginosa): 128 µg/mL | MIC ([1]; Pseudomonas aeruginosa 945748): 128 µg/mL | MIC ([1]; Pseudomonas aeruginosa, pH 5, Pseudomonas aeruginosa 27853, pH 5, read-out: MIC): 32000 µg/mL | MIC ([1]; Pseudomonas aeruginosa, pH 5, Pseudomonas aeruginosa 975744, pH 5, read-out: MIC): 32000 µg/mL | MIC ([1]; Pseudomonas aeruginosa, pH 8, Pseudomonas aeruginosa 27853, pH 8, read-out: MIC): 64000 µg/mL | MIC ([1]; Pseudomonas aeruginosa, strain 880238, aerobic, read-out: MIC): 8 µg/mL | MIC ([1]; Pseudomonas aeruginosa, strain 889058, aerobic, read-out: MIC): 64 µg/mL | MIC ([1]; Pseudomonas aeruginosa, strain 906939, aerobic, read-out: MIC): 64 µg/mL | MIC vs clinical breakpoint (susceptibility) ([2]; Clostridium septicum 11-3571): + | MIC vs clinical breakpoint (susceptibility) ([2]; Clostridium septicum 15-847): + | MIC ([2]; strain 11-3571, anaerobic): 16 µg/mL | MIC ([2]; strain 15-847, anaerobic): 32 µg/mL | MIC [3]: 64000 µg/mL | MIC vs clinical breakpoint (susceptibility) ([4]; Bacteroides thetaiotaomicron VPI5482, anaerobic (Table 17)): − | MIC ([4]; Bacteroides thetaiotaomicron VPI 5842): >128 µg/mL | MIC ([4]; Bacteroides thetaiotaomicron, Bacteroides thetaiotaomicron VPI 5842): 128 µg/mL | MIC ([4]; Bacteroides thetaiotaomicron, strain VPI5482 (Tables 1, 2) / VPI 5842 (other tables)): > 128 µg/mL | MIC [5]: > 128 µg/mL | MIC ([6]; Bacteroides ovatus ATCC 8483, anaerobic): >128 µg/mL | MIC vs clinical breakpoint (susceptibility) ([6]; Bacteroides ovatus ATCC 8483, anaerobic (Table 17)): − | MIC ([6]; Bacteroides ovatus, ATCC8483): > 128 µg/mL | MIC [7]: 16 µg/mL | PAE ([8]; exposure μg/ml: F 1, D/S 0.5/9.5, CAv 4/8, F/D/S 0.125/0.125/2.38, F/D/S/CAv 0.06/0.03/0.6/4/0.25): 0.5 h | PAE ([8]; exposure μg/ml: F 2, D/S 1/19, CAv 4/16, F/D/S 0.25/0.25/4.75, F/D/S/CAv 0.125/0.06/1.19/4/0.5): 0.5 h | PAE ([8]; exposure μg/ml: F 4, D/S 2/38, CAv 4/32, F/D/S 0.5/0.5/9.5, F/D/S/CAv 0.25/0.125/2.38/4/1): 1 h | PAE ([8]; exposure μg/ml: F 8): 1.5 h | MIC [9]: > 128 µg/mL | MIC ([9]; pH 7, Acinetobacter baumannii 918857, pH 7, read-out: MIC): 64000 µg/mL | MIC ([9]; strain 843978, aerobic, read-out: MIC): 8 µg/mL | MIC ([9]; strain 918857, aerobic, read-out: MIC): 64 µg/mL | MIC ([9]; strain 919656, aerobic, read-out: MIC): 8 µg/mL | MIC ([9]; strain 919899, aerobic, read-out: MIC): 8 µg/mL | MIC ([9]; strain 938781, aerobic, read-out: MIC): 16 µg/mL | MIC ([9]; strain 1049160, aerobic, read-out: MIC): 8 µg/mL | MIC ([10]; Parabacteroides distasonis): > 128 µg/mL | MIC ([10]; Parabacteroides distasonis CLA 348, anaerobic): >128 µg/mL | MIC [11]: 16 µg/mL | MIC [12]: > 128 µg/mL | MIC ([13]; ATCC25922, Escherichia coli ATCC 25922 (Table 15)): 1 µg/mL | MIC ([13]; ATCC25922, strain ATCC 25922, aerobic): 2 µg/mL | MIC ([13]; Escherichia coli 846446): 1 µg/mL | MIC ([13]; Escherichia coli 854535): 4 µg/mL | MIC ([13]; Escherichia coli 976657): 16 µg/mL | MIC ([13]; pH 5, Escherichia coli 857021, pH 5): 2000 µg/mL | MIC ([13]; pH 7, Escherichia coli 857021, pH 7): 32000 µg/mL | MIC ([13]; pH 7, Escherichia coli CDC-0089, pH 7): 2000 µg/mL | MIC ([13]; pH 8, Escherichia coli 25922, pH 8): 8000 µg/mL | MIC ([13]; pH 8, Escherichia coli 857021, pH 8): 4000 µg/mL | MIC ([13]; pH 8, Escherichia coli CDC-0089, pH 8): 64000 µg/mL | MIC ([13]; strain 846446, aerobic): 2 µg/mL | MIC ([13]; strain 846450, aerobic): 4 µg/mL | MIC ([13]; strain 854566, aerobic): 16 µg/mL | MIC ([13]; strain 857021, aerobic): 2 µg/mL | MIC ([13]; strain 863678, aerobic): 2 µg/mL | MIC ([13]; strain 863696, aerobic): 8 µg/mL | MIC ([13]; strain 928017, aerobic): 2 µg/mL | MIC ([13]; strain 959117, aerobic): 2 µg/mL | MIC ([13]; strain 961128, aerobic): 2 µg/mL | MIC ([13]; strain 975811, aerobic): 4 µg/mL | MIC ([13]; strain 976657, aerobic): 4 µg/mL | MIC ([13]; strain 977941, aerobic): 4 µg/mL | MIC ([13]; strain 996332, aerobic): 4 µg/mL | PAE ([14]; exposure μg/ml: F 16, D/S 1/19, V 4, F/D/S 4/0.25/4.75, F/D/S/V 2/0.125/2.38/0.5): 0.5 h | PAE ([14]; exposure μg/ml: F 32, D/S 2/38, V 8, F/D/S 8/0.5/9,5, F/D/S/V 4/0.25/4.75/1): 0.5 h | PAE ([14]; exposure μg/ml: F 64, D/S 4/64, V 16, F/D/S 16/1/19, F/D/S/V 8/0.5/9.5/2): 0.5 h | MIC [15]: > 128 µg/mL | MIC ([16]; Klebsiella pneumoniae 870964): 64 µg/mL | MIC ([16]; Klebsiella pneumoniae 875638): 64 µg/mL | MIC ([16]; pH 5, Klebsiella pneumoniae 848788, pH 5): 64000 µg/mL | MIC ([16]; strain 848788, aerobic): 32 µg/mL | MIC ([16]; strain 857147, aerobic): 32 µg/mL | MIC ([16]; strain 868968, aerobic): 8 µg/mL | MIC ([16]; strain 869028, aerobic): 8 µg/mL | MIC ([16]; strain 870964, aerobic): 8 µg/mL | MIC ([16]; strain 875638, aerobic): 16 µg/mL | MIC ([16]; strain 892483, aerobic): 4 µg/mL | MIC ([16]; strain 926439, aerobic): 4 µg/mL | MIC ([16]; strain 926456, aerobic): 64 µg/mL | MIC ([16]; strain 939665, aerobic): 64 µg/mL | MIC ([16]; strain 957464, aerobic): 16 µg/mL | MIC ([16]; strain 957467, aerobic): 16 µg/mL | MIC ([16]; strain 984643, aerobic): 16 µg/mL | MIC ([16]; strain 993434, aerobic): 16 µg/mL | MIC ([16]; strain 995460, aerobic): 16 µg/mL | MIC ([16]; strain 1040205, aerobic): 16 µg/mL
